The results in this text go back to patent US9125913B2, “Bcl-2-selective apoptosis-inducing agents for the treatment of cancer and immune diseases” (AbbVie Inc., priority 2008, dated 2015).

For one assay, the system named is GST-Bcl-2. The experiment in a line: TR-FRET binding assay, Bcl-2. The conditions noted are these: TR-FRET Ki values. Put shortly:
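Compounds serially diluted in DMSO from 50 μM (2× starting concentration, 10% DMSO), mixed with GST-tagged protein, F-Bak peptide probe and Tb-labeled antibody, incubated 3 h at room temperature.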
(In TR-FRET formats the signal depends on donor and acceptor labels being close together.)
For `CC1(C)CCC(CN2CCN(c3ccc(C(=O)NS(=O)(=O)c4ccc(NCCCN5CCCC5)c([N+](=O)[O-])c4)c(Oc4cccc5[nH]ccc45)c3)CC2)=C(c2cccc(C(F)(F)F)c2)C1` [Example 71, 4-[4-({4,4-dimethyl-2-[3-(trifluoromethyl)phenyl]cyclohex-1-en-1-yl}methyl)piperazin-1-yl]-2-(1H-indol-4-yloxy)-N-({3-nitro-4-[(3-pyrrolidin-1-ylpropyl)amino]phenyl}sulfonyl)benzamide], the “Binding selectivity ratio (Bcl-XL Ki/Bcl-2 Ki)” value (“Binding selectivity ratio” below) was more than 105.9.

In the case of `CC1(C)CCC(CN2CCN(c3ccc(C(=O)NS(=O)(=O)c4ccc(NCCC#N)c([N+](=O)[O-])c4)c(Oc4ccc5[nH]ccc5c4)c3)CC2)=C(c2ccc(Cl)cc2)C1` [EXAMPLE 319, 4-(4-{[2-(4-chlorophenyl)-4,4-dimethylcyclohex-1-en-1-yl]methyl}piperazin-1-yl)-N-({4-[(2-cyanoethyl)amino]-3-nitrophenyl}sulfonyl)-2-(1H-indol-5-yloxy)benzamide], the “Binding selectivity ratio” value was 503.4.

Take `CC1(C)CCC(CN2CCN(c3ccc(C(=O)NS(=O)(=O)c4cnc(OCC5(F)CCOCC5)c(C#N)c4)c(Oc4cccc5[nH]ccc45)c3)CC2)=C(c2ccc(Cl)cc2)C1` [EXAMPLE 393, 4-(4-{[2-(4-chlorophenyl)-4,4-dimethylcyclohex-1-en-1-yl]methyl}piperazin-1-yl)-N-({5-cyano-6-[(4-fluorotetrahydro-2H-pyran-4-yl)methoxy]pyridin-3-yl}sulfonyl)-2-(1H-indol-4-yloxy)benzamide]: the “Binding selectivity ratio” value came out at 1110.

Turning to `O=C(NS(=O)(=O)c1ccc(NCCCN2CCOCC2)c([N+](=O)[O-])c1)c1ccc(N2CCN(Cc3ccccc3-c3ccc(Cl)cc3)CC2)cc1Oc1cccc2[nH]ccc12` [Example 58, 4-{4-[(4′-chloro-1,1′-biphenyl-2-yl)methyl]piperazin-1-yl}-2-(1H-indol-4-yloxy)-N-({4-[(3-morpholin-4-ylpropyl)amino]-3-nitrophenyl}sulfonyl)benzamide], the “Binding selectivity ratio” value turned out to be 265.5.

For `CC1(C)CCC(CN2CCN(c3ccc(C(=O)NS(=O)(=O)c4ccc(NC5CCN(S(C)(=O)=O)CC5)c([N+](=O)[O-])c4)c(Oc4cccc5[nH]ccc45)c3)CC2)=C(c2ccc(Cl)cc2)C1` [EXAMPLE 338, 4-(4-{[2-(4-chlorophenyl)-4,4-dimethylcyclohex-1-en-1-yl]methyl}piperazin-1-yl)-2-(1H-indol-4-yloxy)-N-[(4-{[1-(methylsulfonyl)piperidin-4-yl]amino}-3-nitrophenyl)sulfonyl]benzamide], the “Binding selectivity ratio” value is on record as more than 1637.7.

For the compound `CC1(C)CCC(CN2CCN(c3ccc(C(=O)NS(=O)(=O)c4ccc(NCC5CCOCC5)c([N+](=O)[O-])c4)c(Oc4ccc5[nH]ccc5c4)c3)CC2CO)=C(c2ccc(Cl)cc2)C1` (centres unmarked) [EXAMPLE 236, 4-[4-{[2-(4-chlorophenyl)-4,4-dimethylcyclohex-1-en-1-yl]methyl}-3-(hydroxymethyl)piperazin-1-yl]-2-(1H-indol-5-yloxy)-N-({3-nitro-4-[(tetrahydro-2H-pyran-4-ylmethyl)amino]phenyl}sulfonyl)benzamide], the “Binding selectivity ratio” value is more than 1787.6.

For `CC1(C)CCC(CN2CCN(c3ccc(C(=O)NS(=O)(=O)c4ccc(S(=O)(=O)N5CCOCC5)cc4)c(Oc4ccc5[nH]ccc5c4)c3)CC2)=C(c2ccc(Cl)cc2)C1` [EXAMPLE 361, 4-(4-{[2-(4-chlorophenyl)-4,4-dimethylcyclohex-1-en-1-yl]methyl}piperazin-1-yl)-2-(1H-indol-5-yloxy)-N-{[4-(morpholin-4-ylsulfonyl)phenyl]sulfonyl}benzamide], the “Binding selectivity ratio” value was more than 92.6.

`CC1(C)CCC(CN2CCN(c3ccc(C(=O)NS(=O)(=O)c4ccc(NC(CO)C5CCOCC5)c([N+](=O)[O-])c4)c(Oc4ccc5[nH]ccc5c4)c3)CC2)=C(c2ccc(Cl)cc2)C1` (centres unmarked) [EXAMPLE 242, 4-(4-{[2-(4-chlorophenyl)-4,4-dimethylcyclohex-1-en-1-yl]methyl}piperazin-1-yl)-N-({4-[(2-hydroxy-1-tetrahydro-2H-pyran-4-ylethyl)amino]-3-nitrophenyl}sulfonyl)-2-(1H-indol-5-yloxy)benzamide]: the “Binding selectivity ratio” value was more than 367.6.

As to `CC1(C)CCC(CN2CCN(c3ccc(C(=O)NS(=O)(=O)c4cnc(NCC5CCOCC5)c(-c5nccs5)c4)c(Oc4cccc5[nH]ccc45)c3)CC2)=C(c2ccc(Cl)cc2)C1` [EXAMPLE 365, 4-(4-{[2-(4-chlorophenyl)-4,4-dimethylcyclohex-1-en-1-yl]methyl}piperazin-1-yl)-2-(1H-indol-4-yloxy)-N-{[6-[(tetrahydro-2H-pyran-4-ylmethyl)amino]-5-(1,3-thiazol-2-yl)pyridin-3-yl]sulfonyl}benzamide], the “Binding selectivity ratio” value was more than 612.9.

With `CC1(C)CCC(CN2CCN(c3ccc(C(=O)NS(=O)(=O)c4ccc(NCC5(CO)CCOCC5)c([N+](=O)[O-])c4)c(Oc4ccc5[nH]ccc5c4)c3)CC2)=C(c2ccc(Cl)cc2)C1` [EXAMPLE 232, 4-(4-{[2-(4-chlorophenyl)-4,4-dimethylcyclohex-1-en-1-yl]methyl}piperazin-1-yl)-N-{[4-({[4-(hydroxymethyl)tetrahydro-2H-pyran-4-yl]methyl}amino)-3-nitrophenyl]sulfonyl}-2-(1H-indol-5-yloxy)benzamide], the “Binding selectivity ratio” value turned out to be 429.1.

With `CC1(C)CCC(CN2CCN(c3ccc(C(=O)NS(=O)(=O)c4cnc(O[C@@H]5CCN(C(CF)CF)C5)c(Cl)c4)c(Oc4cccc5[nH]ncc45)c3)CC2)=C(c2ccc(Cl)cc2)C1` [EXAMPLE 434, N-{[5-chloro-6-({(3R)-1-[2-fluoro-1-(fluoromethyl)ethyl]pyrrolidin-3-yl}oxy)pyridin-3-yl]sulfonyl}-4-(4-{[2-(4-chlorophenyl)-4,4-dimethylcyclohex-1-en-1-yl]methyl}piperazin-1-yl)-2-(1H-indazol-4-yloxy)benzamide], the “Binding selectivity ratio” value was determined as 1459.

With `CC(C)(C)c1ccc(CN2CCN(c3ccc(C(=O)NS(=O)(=O)c4ccc(NC5CCN(C6CCOCC6)CC5)c([N+](=O)[O-])c4)c(Oc4ccc5[nH]ccc5c4)c3)CC2)c(-c2ccc(Cl)cc2)c1` [EXAMPLE 359, 4-{4-[(5-tert-butyl-4′-chloro-1,1′-biphenyl-2-yl)methyl]piperazin-1-yl}-2-(1H-indol-5-yloxy)-N-({3-nitro-4-[(1-tetrahydro-2H-pyran-4-ylpiperidin-4-yl)amino]phenyl}sulfonyl)benzamide], the “Binding selectivity ratio” value is given as more than 49.0.

On to `CN1CCC(O)(CNc2ccc(S(=O)(=O)NC(=O)c3ccc(N4CCN(CC5=C(c6ccc(Cl)cc6)CC(C)(C)CC5)CC4)cc3Oc3cccc4[nH]ccc34)cc2[N+](=O)[O-])CC1` [EXAMPLE 186, 4-(4-{[2-(4-chlorophenyl)-4,4-dimethylcyclohex-1-en-1-yl]methyl}piperazin-1-yl)-N-[(4-{[(4-hydroxy-1-methylpiperidin-4-yl)methyl]amino}-3-nitrophenyl)sulfonyl]-2-(1H-indol-4-yloxy)benzamide], for which the “Binding selectivity ratio” value is 1069.2.

`CC1(C)CCC(CN2CCN(c3ccc(C(=O)NS(=O)(=O)c4ccc(OCC5COCCO5)c([N+](=O)[O-])c4)c(Oc4ccc5[nH]ccc5c4)c3)CC2)=C(c2ccc(Cl)cc2)C1` (centres unmarked) [EXAMPLE 297, 4-(4-{[2-(4-chlorophenyl)-4,4-dimethylcyclohex-1-en-1-yl]methyl}piperazin-1-yl)-N-{[4-(1,4-dioxan-2-ylmethoxy)-3-nitrophenyl]sulfonyl}-2-(1H-indol-5-yloxy)benzamide]: the “Binding selectivity ratio” value is given as 2209.5.

For `O=C(NS(=O)(=O)c1ccc(NCC2CCOCC2)c(S(=O)(=O)C(F)(F)F)c1)c1ccc(N2CCN(Cc3cc(OCCCN4CCCCC4)ccc3-c3ccc(Cl)cc3)CC2)cc1Oc1ccccc1` [Example 118, 4-(4-{[4′-chloro-4-(3-piperidin-1-ylpropoxy)-1,1′-biphenyl-2-yl]methyl}piperazin-1-yl)-2-phenoxy-N-({4-[(tetrahydro-2H-pyran-4-ylmethyl)amino]-3-[(trifluoromethyl)sulfonyl]phenyl}sulfonyl)benzamide], the “Binding selectivity ratio” value is on record as more than 858.3.

The subject of another assay is FL5.12/Bcl-2 cells. The experiment in a line: FL5.12/Bcl-2 cell viability assay. Format: cell-based, murine. The note with it: ratio of canine platelet EC50 to FL5.12/Bcl-2 EC50. The source says:
FL5.12 is an IL-3 dependent prolymphocytic murine cell line that undergoes apoptosis upon IL-3 withdrawal as a result of the upregulation of pro-apoptotic Bcl-2 proteins such as Bim and Puma. Stable overexpression of anti-apoptotic Bcl-2 protein (FL5.12/Bcl-2) protects against apoptosis induced by IL-3 withdrawal by sequestration of Bim and Puma. […] The ability of compounds to kill FL5.12/Bcl-2 cells upon IL-3 withdrawal is a direct measure of the compounds' ability to inhibit anti-apoptotic Bcl-2 protein function.
Wild type FL5.12/Bcl-2 overexpressing stable transfectants were cultured in RPMI-1640 supplemented with 2 mM L-glutamine, 10% FBS, 1 mM sodium pyruvate, 2 mM HEPES, 1% penicillin/streptomycin (Invitrogen), 57 μM β-ME, and 10% WEHI-3B conditioned medium (source of IL-3) and maintained at 37° C. containing 5% CO2. 1×10^6 cells/ml were washed 1×PBS and resuspended in medium not supplemented with 10% WEHI-3B for 48 hrs prior to cytotoxicity assays. Cells were then treated for an additional 24 hrs in the presence of various concentrations of the indicated compounds. Cell viability was assessed by CellTitre Glo assay (Promega Corp.) according to the manufacturer's recommendations.
In the case of `CC1(C)CCC(CN2CCN(c3ccc(C(=O)NS(=O)(=O)c4ccc(NCCCN5CCCC5)c([N+](=O)[O-])c4)c(Oc4cccc5[nH]ccc45)c3)CC2)=C(c2cccc(C(F)(F)F)c2)C1` [Example 71, 4-[4-({4,4-dimethyl-2-[3-(trifluoromethyl)phenyl]cyclohex-1-en-1-yl}methyl)piperazin-1-yl]-2-(1H-indol-4-yloxy)-N-({3-nitro-4-[(3-pyrrolidin-1-ylpropyl)amino]phenyl}sulfonyl)benzamide], the “Selectivity Ratio (Platelet EC50/FL5.12/Bcl-2 EC50)” value is more than 107.

For `CN(C)CCCOc1ccc(S(=O)(=O)NC(=O)c2ccc(N3CCN(CC4=C(c5ccc(Cl)cc5)CC(C)(C)CC4)CC3)cc2Oc2cccc3[nH]ccc23)cc1[N+](=O)[O-]` [Example 106, 4-(4-{[2-(4-chlorophenyl)-4,4-dimethylcyclohex-1-en-1-yl]methyl}piperazin-1-yl)-N-({4-[3-(dimethylamino)propoxy]-3-nitrophenyl}sulfonyl)-2-(1H-indol-4-yloxy)benzamide], the “Selectivity Ratio (Platelet EC50/FL5.12/Bcl-2 EC50)” value was determined as 1657.
